Molecular target: CDK2/Cyclin E1 (Homo sapiens, UniProt P24941)
Test: CDK2/Cyclin E1 Caliper LabChip EZ Reader mobility shift assay
Assay type: biochemical
Parameters: purchased Eurofins 14-475
Details: read-out: Caliper Assay (CDK2/CCNE1): IC50
In short: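 Substrate-to-product conversion of fluorescent peptide (1.5 μM final) read by capillary electrophoresis after 100 min reaction, EDTA-quenched. Enzyme (2.5 nM final) and ATP (100 μM final) were preincubated 30 min with inhibitor dilutions first. % activity vs concentration fitted four-parameter for IC50.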

IC50 [µM] | SMILES
1 to 10 | CCCC(=O)N1CC2(C1)CN(C(=O)c1cnn(Cc3ccccc3)c1)C[C@H]2C(=O)N[C@H](C(=O)NC)[C@@H](C)OCc1ccccc1 [I-60A]
> 10 | COC(=O)C1(NC(=O)[C@@H]2CN(C(=O)c3cnn(Cc4ccccc4)c3)CC23CN(C(=O)[C@H]2CC2(C)C)C3)COC1 [I-142B]
0.01 to 0.1 | C[C@@H](OCC1CCCCC1)[C@H](NC(=O)[C@@H]1CN(C(=O)c2cnn(Cc3ccccc3)c2)CC12CN(C(=O)[C@H]1CC1(C)C)C2)C(=O)N1CCC[C@@H]1CN [I-238]
> 10 | CNC(=O)[C@@H](NC(=O)[C@H]1CN(C(=O)c2scnc2C(C)(C)C)CC12CN(C(=O)[C@H]1CC1(C)C)C2)[C@@H](C)OCC1CCCCC1 [I-231B]
1 to 10 | C[C@H](NC(=O)[C@@H]1CN(C(=O)c2cnn(Cc3ccccc3)c2)CC12CN(C(=O)[C@H]1CC1(C)C)C2)c1cccc(F)c1 [I-127A]
0.1 to 1 | C[C@@H](OCC1CCOCC1)[C@@H](COC(F)(F)F)NC(=O)[C@@H]1CN(C(=O)c2cncs2)CC12CN(C(=O)[C@H]1CC1(C)C)C2 [I-428]
1 to 10 | Cc1ccc(C(C)NC(=O)[C@@H]2CN(C(=O)c3cnn(Cc4ccccc4)c3)CC23CN(C(=O)[C@H]2CC2(C)C)C3)nn1 (stereo partly drawn) [I-366]
> 10 | CNC(=O)[C@@H](NC(=O)[C@H]1CN(C(=O)c2cnn(Cc3ccccc3)c2)CC12CN(C(=O)C1(F)CC1)C2)[C@@H](C)OCc1ccccc1 [I-71B]
> 10 | CNC(=O)[C@@H](NC(=O)[C@H]1CN(Cc2cnco2)CC12CN(C(=O)[C@H]1CC1(C)C)C2)[C@@H](C)OCc1ccccc1 [I-78B]
1 to 10 | CC1(C)C[C@@H]1C(=O)N1CC2(CN(C(=O)c3cnn(Cc4ccccc4)c3)C[C@H]2C(=O)N2CCC(OCc3ccccc3)CC2)C1 [I-214]
1 to 10 | CNC(=O)[C@@H](NC(=O)[C@H]1CN(C(=O)c2cnn(Cc3ccccc3)c2)CC12CN(C(=O)[C@H]1CC1(C)C)C2)[C@@H](C)OCC(C)C [I-137B]
> 10 | CNC(=O)[C@@H](NC(=O)[C@H]1CN(C(=O)c2cnn(Cc3ccccc3)c2)CC12CN(C(=O)Cc1ccccc1)C2)[C@@H](C)OCc1ccccc1 [I-25B]
> 10 | Cc1ccc(CNC(=O)[C@@H]2CN(C(=O)c3cnn(Cc4ccncc4)c3)CC23CN(C(=O)[C@H]2CC2(C)C)C3)nn1 [I-418]
0.1 to 1 | CNC(=O)[C@@H](NC(=O)[C@H]1CN(C(=O)c2cnn(Cc3ccccc3)c2)CC12CN(C(=O)[C@H]1CC1(C)C)C2)[C@@H](C)OCC1CCCCCC1 [I-166B]
0.01 to 0.1 | CC1(C)C[C@@H]1C(=O)N1CC2(CN(C(=O)c3cncs3)C[C@H]2C(=O)NC(c2cccc(C3CCCCC3)n2)C2CCCO2)C1 (stereo partly drawn) [I-495]
0.1 to 1 | C[C@@H](OCC1CCCCC1)[C@H](NC(=O)[C@H]1CN(C(=O)c2cnn(Cc3ccccc3)c2)CC12CN(C(=O)[C@H]1CC1(C)C)C2)C(=O)N1CCC(F)(F)CC1 [I-149B]
0.1 to 1 | CNC(=O)[C@@H](NC(=O)[C@@H]1CN(C(=O)c2cnc(Cl)s2)CC12CN(C(=O)[C@H]1CC1(C)C)C2)[C@@H](C)OCC1CCCCC1 [I-189A]
≤ 0.01 | C[C@@H](OCC12CCC(CC1)OC2)[C@H](NC(=O)[C@@H]1CN(C(=O)c2cncs2)CC12CN(C(=O)[C@H]1CC1(C)C)C2)C(=O)N1CCC[C@H](COC(F)F)C1 [I-461]
> 10 | CO[C@@H]1CC[C@H](NC(=O)[C@@H]2CN(C(=O)c3cnn(Cc4ccccc4)c3)CC23CN(C(=O)[C@H]2CC2(C)C)C3)C1 [I-248]
0.01 to 0.1 | C[C@@H](OC(C)(C)C1CCCCC1)[C@H](NC(=O)[C@@H]1CN(C(=O)c2cncs2)CC12CN(C(=O)[C@H]1CC1(C)C)C2)C(=O)N1CCCCC1 [I-395]
1 to 10 | COC[C@H]1CCCN(C(=O)[C@@H](NC(=O)[C@@H]2CN(C(=O)c3cncs3)CC23CN(C(=O)[C@H]2CC2(C)C)C3)[C@@H](C)OC[C@H]2CC[C@H](N)CC2)C1 [I-433]
≤ 0.01 | C[C@@H](OCC1CCCCC1)[C@H](NC(=O)C1CN(C(=O)c2cncs2)CC12CN(C(=O)[C@H]1CC1(C)C)C2)C(=O)N1CCOCC1 (stereo partly drawn) [I-138]
0.01 to 0.1 | CNC(=O)[C@@H](NC(=O)[C@@H]1CN(C(=O)c2cnc(C)s2)CC12CN(C(=O)[C@H]1CC1(C)C)C2)[C@@H](C)OCC1CCCCC1 [I-156A]
1 to 10 | CNC(=O)[C@@H](NC(=O)[C@H]1CN(C(=O)c2cnn(Cc3ccccc3)c2)CC12CN(C(=O)[C@H]1CC1(C)C)C2)[C@@H](C)OCC1CCOCC1 [I-119B]
0.01 to 0.1 | COC[C@H]1CCCN(C(=O)[C@@H](NC(=O)[C@@H]2CN(C(=O)c3cncs3)CC23CN(C(=O)[C@H]2CC2(C)C)C3)[C@@H](C)OC[C@H]2CC[C@H](OC)CC2)C1 [I-402]
> 10 | CNC(=O)[C@@H](NC(=O)[C@@]1(C)CN(C(=O)c2cnn(Cc3ccccc3)c2)CC12CN(C(=O)[C@H]1CC1(C)C)C2)[C@@H](C)OCC1CCCCC1 [I-499B]

IC50 [µM] | SMILES
> 10 | CNC(=O)[C@@H](NC(=O)[C@@H]1CN(C(=O)c2cn[nH]c2)CC12CN(C(=O)CC1CC1)C2)[C@@H](C)OCc1ccccc1 [I-41A, (S)—N-((2S,3R)-3-(benzyloxy)-1-(methylamino)-1-oxobutan-2-yl)-2-(2-cyclopropylacetyl)-6-(1H-pyrazole-4-carbonyl)-2,6-diazaspiro[3.4]octane-8-carboxamide]
0.1 to 1 | CC1(C)C[C@@H]1C(=O)N1CC2(CN(C(=O)c3cnn(Cc4ccccc4)c3)C[C@H]2C(=O)N[C@H]2CCN(c3ccccc3)C2)C1 [I-206]
≤ 0.01 | C[C@@H](OCC1CCCCC1)[C@H](NC(=O)[C@@H]1CN(C(=O)c2cnn(Cc3ccccc3)c2)CC12CN(C(=O)[C@H]1CC1(C)C)C2)C(=O)N1CCC[C@@H](N)C1 [I-218]
> 10 | CNC(=O)[C@@H](NC(=O)[C@@H]1CN(C(=O)c2cncs2)CC12CN(CC(C)(C)C)C2)[C@@H](C)OCC12CCC(CC1)OC2 [I-347]
0.01 to 0.1 | C[C@@H](OCC1CCCCC1)[C@H](NC(=O)[C@@H]1CN(C(=O)c2cnn(Cc3ccccc3)c2)CC12CN(C(=O)[C@H]1CC1(C)C)C2)C(=O)N1CC[C@@H]1CN [I-270]
≤ 0.01 | C[C@@H](OCc1ccccc1)[C@H](NC(=O)[C@@H]1CN(C(=O)c2cnn(Cc3ccccc3)c2)CC12CN(C(=O)[C@H]1CC1(C)C)C2)C(=O)N(C)C [I-409]
> 10 | CNC(=O)[C@H](COCc1ccccc1)NC(=O)[C@H]1CN(C(=O)c2cnn(Cc3ccccc3)c2)CC12CN(C(=O)C(C)(C)C)C2 [I-100B]
1 to 10 | CC1(C)C[C@@H]1C(=O)N1CC2(CN(C(=O)c3cnn(Cc4ccccc4)c3)C[C@H]2C(=O)NCc2ccc(C(F)(F)F)nn2)C1 [I-392]
1 to 10 | C[C@@H](OCC1CCCCC1)[C@H](NC(=O)[C@H]1CN(C(=O)c2cn[nH]c2)CC12CN(C(=O)[C@H]1CC1(C)C)C2)C(=O)N1CCCCC1 [I-151B]
> 10 | Cc1ccc(CNC(=O)[C@@H]2CN(C(=O)c3cnc(Cc4ccccc4)s3)CC23CN(C(=O)[C@H]2CC2(C)C)C3)nn1 [I-405]
1 to 10 | CNC(=O)C(NC(=O)[C@@H]1CN(C(=O)c2cncs2)CC12CN(C(=O)[C@H]1CC1(C)C)C2)c1cccc(N2CCOCC2)n1 (stereo partly drawn) [I-422]
> 10 | CNC(=O)[C@@H](NC(=O)[C@@H]1CN(C(=O)c2cnn(Cc3ccccc3)c2)CC12CN(C(=O)C1(CCOC)CC1)C2)[C@@H](C)OCc1ccccc1 [I-102A]
0.1 to 1 | C[C@@H](OCC1CCCCC1)[C@@H](CO)NC(=O)[C@H]1CN(C(=O)c2cnn(Cc3ccccc3)c2)CC12CN(C(=O)[C@H]1CC1(C)C)C2 [I-135B]
> 10 | CNC(=O)[C@@H](NC(=O)[C@@H]1CN(C(=O)c2cncs2)CC12CN(CC1CCCC1)C2)[C@@H](C)OCC12CCC(CC1)OC2 [I-344, (S)—N-((2S,3R)-3-(2-oxabicyclo[2.2.2]octan-4-ylmethoxy)-1-(methylamino)-1-oxobutan-2-yl)-2-(cyclopentylmethyl)-6-(thiazole-5-carbonyl)-2,6-diazaspiro[3.4]octane-8-carboxamide]
1 to 10 | CNC(=O)[C@@H](NC(=O)[C@@H]1CN(C(=O)c2cnn(Cc3ccccc3)c2)CC12CN(C(=O)[C@H]1CC1(C)C)C2)[C@@H](C)OCc1ccncc1 [I-244]
≤ 0.01 | C[C@@H](OCC1CCC(F)(F)CC1)[C@H](NC(=O)[C@@H]1CN(C(=O)c2cnn(Cc3ccc(F)cc3)c2)CC12CN(C(=O)[C@H]1CC1(C)C)C2)C(N)=O [I-203]
> 10 | CC1(C)C[C@@H]1C(=O)N1CC2(CN(C(=O)c3cnn(Cc4ccccc4)c3)C[C@H]2C(=O)N[C@H]2CCN(C3CC3)C2=O)C1 [I-243]
0.01 to 0.1 | CNC(=O)[C@@H](NC(=O)[C@@H]1CN(C(=O)c2cnn(CC3CCOCC3)c2)CC12CN(C(=O)[C@H]1CC1(C)C)C2)[C@@H](C)OCC1CCCCC1 [I-121A]
1 to 10 | CN(C(=O)[C@H]1CCCN(C(=O)[C@@H]2CN(C(=O)c3cnn(Cc4ccccc4)c3)CC23CN(C(=O)[C@H]2CC2(C)C)C3)C1)C1CCCCC1 [I-179]
> 10 | CC1(C)C[C@@H]1C(=O)N1CC2(CN(C(=O)c3cnn(Cc4ccccc4)c3)C[C@H]2C(=O)NC[C@H]2CC[C@@H](C)CC2)C1 [I-388]
0.01 to 0.1 | CNC(=O)[C@@H](NC(=O)[C@@H]1CN(C(=O)c2cncs2)CC12CN(C(=O)C(C)(C)C)C2)[C@@H](C)OCC1CCCCC1 [I-186A]
> 10 | CNC(=O)[C@@H](NC(=O)[C@H]1CN(C(=O)c2cnn(Cc3ccccc3)c2)CC12CN(C(=O)C1(C(F)(F)F)CC1)C2)[C@@H](C)OCc1ccccc1 [I-108B]
> 10 | Cc1ccc(CNC(=O)[C@@H]2CN(C(=O)c3cnn(Cc4ccccn4)c3)CC23CN(C(=O)[C@H]2CC2(C)C)C3)nn1 [I-417]
≤ 0.01 | COC[C@H]1CCCN(C(=O)[C@@H](NC(=O)[C@@H]2CN(C(=O)c3cncs3)CC23CN(C(=O)[C@H]2CC2(C)C)C3)[C@@H](C)OC(C)C2CCCCC2)C1 (stereo partly drawn) [I-374]
≤ 0.01 | C[C@@H](OCC1CCCCC1)[C@@H](COC1CCNCC1)NC(=O)[C@@H]1CN(C(=O)c2cncs2)CC12CN(C(=O)[C@H]1CC1(C)C)C2 [I-329]

Reference: US20240174680A1, “CDK2 INHIBITORS AND METHODS OF USING THE SAME” (Cedilla Therapeutics, Inc., priority 2021, published 2024)
